Test results: article PMC7702303, “Biochemical and transcript level differences between the three human phosphofructokinases show optimisation of each isoform for specific metabolic niches” (Biochemical Journal, 2020)
Where two headings read alike, the source gives them in different places.

Columns and labels:
recombinant human PFK-L = molecular target: T1, recombinant human PFK-L (Homo sapiens, UniProt P17858); assay: ALDO-TIM-G3PDH enzyme-linked kinetic assay, PFK-L; type: biochemical; settings: PFK-L; for K0.5F6P + modulator / VmaxF6P + modulator: ATP 0.5mM; for K0.5F6P + modulator / VmaxF6P + modulator / K0.5ATP + modulator / VmaxATP + modulator: N=3, mean (SD); for K0.5ATP + modulator / VmaxATP + modulator: F6P 4mM
T1 construct: made in house; host or cells: PFK-deficient Saccharomyces cerevisiae
T1 sequence (P17858 1-780): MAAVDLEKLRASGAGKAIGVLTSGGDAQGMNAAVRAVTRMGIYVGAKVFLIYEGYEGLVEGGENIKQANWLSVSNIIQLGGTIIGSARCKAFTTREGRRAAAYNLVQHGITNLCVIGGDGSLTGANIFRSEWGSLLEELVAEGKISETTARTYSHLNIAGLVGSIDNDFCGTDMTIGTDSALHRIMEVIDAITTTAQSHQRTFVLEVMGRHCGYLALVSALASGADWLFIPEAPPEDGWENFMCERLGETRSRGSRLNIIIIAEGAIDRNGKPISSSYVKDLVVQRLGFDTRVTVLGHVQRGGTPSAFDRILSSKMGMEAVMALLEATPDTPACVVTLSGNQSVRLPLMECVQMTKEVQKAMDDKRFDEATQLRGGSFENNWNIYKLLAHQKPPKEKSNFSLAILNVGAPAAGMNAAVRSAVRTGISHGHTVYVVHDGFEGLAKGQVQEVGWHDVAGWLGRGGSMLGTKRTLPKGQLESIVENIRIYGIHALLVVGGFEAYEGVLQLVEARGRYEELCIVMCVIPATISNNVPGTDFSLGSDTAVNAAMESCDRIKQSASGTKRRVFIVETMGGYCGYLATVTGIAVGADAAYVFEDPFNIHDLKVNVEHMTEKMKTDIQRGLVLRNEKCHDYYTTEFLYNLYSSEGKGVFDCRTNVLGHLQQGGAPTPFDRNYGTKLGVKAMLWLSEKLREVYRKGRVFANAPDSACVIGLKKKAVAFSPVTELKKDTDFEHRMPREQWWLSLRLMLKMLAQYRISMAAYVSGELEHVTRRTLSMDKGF
Experimental: (§1) Recombinant human PFKs were expressed in PFK-deficient Saccharomyces cerevisiae and purified using the methods described previously, adapting earlier materials and protocols. Production of PFK intended for use in ATP titration experiments used 1 mM F6P as a tetramer stabilising agent in protein purification and storage buffers. Production of PFK intended for use in F6P titration experiments used 1 mM ATP as a tetramer stabilising agent in protein purification and storage buffers. Experimental details on the purification and characterisation procedures including figures showing SDS–PAGE gels of the highly pure PFKs used in the kinetic experiments described in this work have been recently published.
(§2) Assay buffer consisted of 50 mM TEA, 100 mM KCl, 10 mM MgCl2, 1 mM Tris(2-carboxyethyl)phosphine hydrochloride (TCEP), 10% glycerol, pH 7.4. Assay mix consisted of 5 units/ml glycerol-3-phosphate dehydrogenase (G3PDH, Sigma–Aldrich G6880), 2.5 units/ml aldolase (Sigma–Aldrich A2714), 25 units/ml triosephosphate isomerase (TIM, Sigma–Aldrich T6258), and 1.25 mM NADH. ATP and F6P were obtained from Sigma–Aldrich (A2383 and F3627, respectively). For ATP titrations, 38 µl of buffer or ligand were added to a clear non-binding 96-well plate. 40 µl of assay mix containing 10 mM F6P (final concentration 4 mM) was added and the plate was incubated at 25°C for 5 min. An amount of 2 µl of PFK isoforms were added to each well from stock concentrations of 150 µg/ml and the reaction was immediately started with 20 µl of ATP at varying concentrations. For F6P titrations, 30 µl of buffer or ligand was added to a clear non-binding 96-well plate. An amount of 40 µl of assay mix containing 1.25 mM ATP (final concentration 0.5 mM) was added and the plate was incubated at 25°C for 5 min. An amount of 5 µl of PFK isoforms were added to each well from stock concentrations of 200 µg/ml and the reaction was immediately started with 20 µl F6P at varying concentrations. All ligands and substrates (including ATP) were used at pH 7.4. All metabolites were obtained from Sigma–Aldrich unless otherwise stated. […] A SpectraMax M5 Multi-Mode Microplate Reader was used to measure A340nm at 13 s intervals for 10 min. All experiments were performed in triplicate unless otherwise stated.
(§3) Time-dependent absorbance change was converted into rate of NADH oxidation (µM s^−1) or specific activity (µmol min^−1 mg protein^−1) using the Beer-Lambert law (molar extinction coefficient of NADH 6.22 mM^−1 cm^−1). The initial rate of reaction was used to avoid accumulation of ADP, which activates PFK, interfering with the determination of kinetic properties. Non-linear regression analysis was performed on substrate titration data using GraphPad Prism 7, with curves fitted using allosteric sigmoidal models, enabling determination of steady-state kinetic values.

recombinant human PFK-P = molecular target: T2, recombinant human PFK-P (Homo sapiens, UniProt Q01813); assay: ALDO-TIM-G3PDH enzyme-linked kinetic assay, PFK-P; type: biochemical; settings: for K0.5F6P + modulator / VmaxF6P + modulator: ATP 0.5mM; for K0.5F6P + modulator / VmaxF6P + modulator / K0.5ATP + modulator / VmaxATP + modulator: N=3, mean (SD); for K0.5ATP + modulator / VmaxATP + modulator: F6P 4mM
T2 construct: made in house; host or cells: PFK-deficient Saccharomyces cerevisiae
T2 sequence (Q01813 1-784): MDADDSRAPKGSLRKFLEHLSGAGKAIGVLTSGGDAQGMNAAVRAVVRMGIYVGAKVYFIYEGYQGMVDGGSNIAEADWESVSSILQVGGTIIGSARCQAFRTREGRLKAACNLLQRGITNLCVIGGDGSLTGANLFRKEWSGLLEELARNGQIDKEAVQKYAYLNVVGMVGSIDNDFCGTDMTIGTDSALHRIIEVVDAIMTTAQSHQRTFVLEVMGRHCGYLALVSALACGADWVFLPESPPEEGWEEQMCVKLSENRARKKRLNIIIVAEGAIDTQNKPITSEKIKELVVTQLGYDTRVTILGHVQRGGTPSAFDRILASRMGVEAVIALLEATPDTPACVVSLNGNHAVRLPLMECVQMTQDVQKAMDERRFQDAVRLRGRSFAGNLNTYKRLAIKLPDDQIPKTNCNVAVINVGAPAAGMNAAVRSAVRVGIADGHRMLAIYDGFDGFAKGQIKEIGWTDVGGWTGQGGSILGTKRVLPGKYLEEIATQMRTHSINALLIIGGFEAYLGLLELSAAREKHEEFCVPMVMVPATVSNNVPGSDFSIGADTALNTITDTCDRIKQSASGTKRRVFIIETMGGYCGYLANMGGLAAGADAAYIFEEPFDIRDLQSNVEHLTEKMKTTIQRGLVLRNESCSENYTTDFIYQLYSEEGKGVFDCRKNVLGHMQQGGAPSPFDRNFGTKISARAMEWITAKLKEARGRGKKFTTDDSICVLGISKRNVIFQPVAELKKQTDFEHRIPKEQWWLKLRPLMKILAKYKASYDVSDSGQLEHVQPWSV
Experimental: as §1, §2, §3

PFK = tested on: PFK; set-up: key to Effect (activator or inhibitor of PFK): “+” indicates activator; “-“ indicates inhibitor; settings: cited from earlier work; for Effect (activator or inhibitor of PFK): published literature, ref selected references in Supplementary Table 1; for IC50 or AC50 (activator): asterisk not explained, ref Moreno-Sanchez et al., 2012

Nc1ncnc2c1ncn2[C@@H]1O[C@H](COP(=O)(O)OP(=O)(O)O)[C@@H](O)[C@H]1O [ADP]
effect on PFK activity, in words (recombinant human PFK-L): mixed effects | change in kcat^ATP/K0.5^ATP compared with control PFK without modulator (recombinant human PFK-L; modulator 600 µM): −47% | change in kcat^F6P/K0.5^F6P compared with control PFK without modulator (recombinant human PFK-L; modulator 600 µM): +157% | K0.5F6P + modulator (recombinant human PFK-L; modulator 600 µM): 872.9 (14.9) M | VmaxF6P + modulator (recombinant human PFK-L; modulator 600 µM): 5.65 (0.07) moles/min/mg | K0.5ATP + modulator (recombinant human PFK-L; modulator 600 µM): 362.0 (46.5) M | VmaxATP + modulator (recombinant human PFK-L; modulator 600 µM): 49.38 (2.48) moles/min/mg | effect on PFK activity, in words (recombinant human PFK-P): activating | change in kcat^ATP/K0.5^ATP compared with control PFK without modulator (recombinant human PFK-P; modulator 600 µM): +39% | change in kcat^F6P/K0.5^F6P compared with control PFK without modulator (recombinant human PFK-P; modulator 600 µM): +129% | K0.5F6P + modulator (recombinant human PFK-P; modulator 600 µM): 821.7 (53.4) M | VmaxF6P + modulator (recombinant human PFK-P; modulator 600 µM): 2.51 (0.11) moles/min/mg | K0.5ATP + modulator (recombinant human PFK-P; modulator 600 µM): 290.5 (36.0) M | VmaxATP + modulator (recombinant human PFK-P; modulator 600 µM): 37.99 (1.74) moles/min/mg | Effect (activator or inhibitor of PFK) (PFK): +

Nc1ncnc2c1ncn2[C@@H]1O[C@H](COP(=O)(O)O)[C@@H](O)[C@H]1O [AMP]
decrease in K0.5^F6P by AMP (recombinant human PFK-L; F6P titration): more than 5 fold | change in kcat^ATP/K0.5^ATP compared with control PFK without modulator (recombinant human PFK-L; modulator 1200 µM): +9% | change in kcat^F6P/K0.5^F6P compared with control PFK without modulator (recombinant human PFK-L; modulator 1200 µM): +766% | K0.5F6P + modulator (recombinant human PFK-L; modulator 1200 µM): 260.6 (8.2) M | VmaxF6P + modulator (recombinant human PFK-L; modulator 1200 µM): 5.68 (0.06) moles/min/mg | K0.5ATP + modulator (recombinant human PFK-L; modulator 1200 µM): 156.9 (17.6) M | VmaxATP + modulator (recombinant human PFK-L; modulator 1200 µM): 44.45 (1.74) moles/min/mg | decrease in K0.5^F6P by AMP (recombinant human PFK-P; F6P titration): two-fold decrease | change in kcat^ATP/K0.5^ATP compared with control PFK without modulator (recombinant human PFK-P; modulator 1200 µM): +220% | change in kcat^F6P/K0.5^F6P compared with control PFK without modulator (recombinant human PFK-P; modulator 1200 µM): +162% | K0.5F6P + modulator (recombinant human PFK-P; modulator 1200 µM): 607.0 (31.0) M | VmaxF6P + modulator (recombinant human PFK-P; modulator 1200 µM): 2.13 (0.06) moles/min/mg | K0.5ATP + modulator (recombinant human PFK-P; modulator 1200 µM): 94.4 (10.8) M | VmaxATP + modulator (recombinant human PFK-P; modulator 1200 µM): 28.38 (1.07) moles/min/mg | IC50 or AC50 (activator) (PFK; first of three values marked *): 860 µM | Effect (activator or inhibitor of PFK) (PFK): + | IC50 or AC50 (activator) (PFK; second of three values marked *): 5800 µM | IC50 or AC50 (activator) (PFK; third of three values marked *): 1550 µM
